Species on record: Rattus norvegicus
Test: Open TG-GATES - Regimen: Daily Repeat
Assay type: toxicity, organism-based, Sprague-Dawley
Parameters: regimen Daily Repeat, gender Male, age 6 weeks
Conditions: in vivo, po, 0 mg/kg, route gavage, dose level Control; for APTT / Bas / Eos / Fbg / Ht / Lym / MCH / MCHC / MCV / PT / Plat / RBC / Ret / WBC / Hb / Mono: tissue Blood; for KIDNEY_L / KIDNEY_R / KIDNEY_TOTAL: tissue Kidney; for LIVER: tissue Liver; for ALP / ALT / AST / CRE / Ca / Cl / DBIL / IP / K / LDH / Na / PL / RALB / TBIL / TC / TG / TP / gamma-GTP / BUN: tissue Plasma

## C#C[C@]1(O)CC[C@H]2[C@@H]3CCc4cc(O)ccc4[C@H]3CC[C@@]21C [ETHINYL ESTRADIOL]
72 h, time 3 day
  TERMINAL_BW: 222.5 g
  APTT: 16.4 s
  Bas: 0.2%
  Eos: 1%
  Fbg: 261.6 mg/dL
  Ht: 40.2%
  Lym: 79%
  MCH: 21.4 pg
  MCHC: 33.5%
  MCV: 63.8 fL
  PT: 12.3 s
  Plat: 110.8 x10_4/uL
  RBC: 630.4 x10_4/ul
  Ret: 7.8%
  WBC: 93.3 x10_2/uL
  KIDNEY_L: 0.9 g
  KIDNEY_R: 1 g
  LIVER: 10.3 g
  ALP: 1467.2 IU/L
  ALT: 49.6 IU/L
  AST: 73.2 IU/L
  CRE: 0.2 mg/dL
  Ca: 10.8 mg/dL
  Cl: 106.8 meq/L
  DBIL: 0.018 mg/dL
  IP: 6.5 mg/dL
  K: 4 meq/L
  LDH: 68.4 IU/L
  Na: 143.2 meq/L
  PL: 134.2 mg/dL
  RALB: 2.6 g/dL
  TBIL: 0.034 mg/dL
  TC: 77.8 mg/dL
  TG: 98.2 mg/dL
  TP: 5.5 g/dL
  gamma-GTP: 1.2 IU/L
[…], time 14 day
  TERMINAL_BW: 321.6 g
  APTT: 16.7 s
  Bas: 0%
  Eos: 1%
  Fbg: 279.4 mg/dL
  Hb: 13.9 g/dL
  Ht: 40.3%
  Lym: 76.4%
  MCH: 20.9 pg
  MCV: 60.2 fL
  Mono: 2.4%
  PT: 11.8 s
  Plat: 120 x10_4/uL
  RBC: 668.4 x10_4/ul
  Ret: 4.5%
  WBC: 90.3 x10_2/uL
  KIDNEY_L: 1.3 g
  KIDNEY_R: 1.3 g
  KIDNEY_TOTAL: 2.6 g
  LIVER: 14.4 g
  ALP: 1586.6 IU/L
  ALT: 44.2 IU/L
  AST: 66.6 IU/L
  BUN: 15.4 mg/dL
  CRE: 0.2 mg/dL
  Ca: 11.3 mg/dL
  Cl: 104.8 meq/L
  DBIL: 0.016 mg/dL
  IP: 6.5 mg/dL
  K: 3.9 meq/L
  LDH: 72.8 IU/L
  Na: 143.2 meq/L
  PL: 143 mg/dL
  TBIL: 0.07 mg/dL
  TC: 74.6 mg/dL
  TG: 104.4 mg/dL
  TP: 6 g/dL
  gamma-GTP: 0.8 IU/L
[…], time 28 day
  TERMINAL_BW: 423 g
  APTT: 18 s
  Bas: 0.2%
  Eos: 1%
  Fbg: 294.2 mg/dL
  Hb: 15 g/dL
  Ht: 42.5%
  Lym: 79.4%
  MCH: 20.3 pg
  MCHC: 35.3%
  MCV: 57.3 fL
  Mono: 2.2%
  Plat: 88.3 x10_4/uL
  RBC: 742.6 x10_4/ul
  Ret: 2.6%
  WBC: 108.2 x10_2/uL
  KIDNEY_L: 1.4 g
  KIDNEY_R: 1.4 g
  KIDNEY_TOTAL: 2.8 g
  LIVER: 18.3 g
  ALP: 1125 IU/L
  ALT: 39.4 IU/L
  AST: 58 IU/L
  BUN: 16 mg/dL
  CRE: 0.2 mg/dL
  Cl: 104.8 meq/L
  DBIL: 0.012 mg/dL
  IP: 6.1 mg/dL
  K: 3.8 meq/L
  LDH: 59.2 IU/L
  Na: 143.2 meq/L
  PL: 155.8 mg/dL
  RALB: 2.9 g/dL
  TBIL: 0.066 mg/dL
  TC: 80.4 mg/dL
  TG: 137.2 mg/dL
  TP: 6.3 g/dL
  gamma-GTP: 1 IU/L
